The values below come from US20220402980A1, “CHROMOGRANIN A-DERIVED PEPTIDES AND USES THEREOF” (OSPEDALE SAN RAFFAELE S.R.L., priority 2019, published 2022).

The structures appear in SMILES notation. Like-named read-outs stand apart in the source and are kept apart here. Where a SMILES comes first, the peptide text is derived from it. Bridges are numbered along the chain shown (N, C = ends). Triazole bridges read from a SMILES are 1,4-linked. [ ]: non-standard residue; d: D form. Lys(N3) = [N-]=[N+]=NCCCC[C@H](N)C(=O)O; Pra = C#CC[C@H](N)C(=O)O Bounds are passed on as bounds.

A short description of one series: in vivo. Particulars: mouse, iv, 3 MBq/animal, total radioactivity.
In another series the target is αvβ8 (Homo sapiens, UniProt P06756+P26012). Kind of series: Competitive integrin binding assay (isoDGR/STV-HRP probe), αvβ8-coated plates. As for the experimental part: (§1) Peptide binding was measured by a competitive binding assay using as integrin probe a complex made by a N-terminal acetylated isoDGR peptide biotinylated at the E-amino group of the lysine, acetyl-Ciso[…]-bio (SEQ ID No. 29), and a streptavidin-peroxidase conjugate (called isoDGR/STV-HRP)[43].
(§2) Each mixture was then added to integrin-coated wells and left to incubate for 2 h at room temperature. After washing with 25 mM Tris-HCl, pH 7.4, containing 150 mM sodium chloride, 1 mM magnesium chloride, 1 mM manganese chloride, each well was filled with a chromogenic solution (o-phenylenediamine dihydrochloride) and left to incubate for 30 min at room temperature. The chromogenic reaction was stopped by adding 1 N sulfuric acid. The absorbance at 490 nm was then measured using a microtiterplate reader. Ki values were calculated by non-linear regression analysis of competitive binding data using the “One site - Fit Ki” equation of the GraphPad Prism Software using the Kd values of the probe indicated above.

The next series concerns BxPC-3 cells. Kind of series: Binding of peptide-IRDye conjugates to cultured BxPC-3 cells. Particulars: BxPC-3 cells; 5a-IRDye 4 nM. The format is cell-based, human. As for the experimental part:
(§3) B) Binding of the indicated peptide-IRDye conjugates to the various cell lines. Various amounts of conjugates were added to cell monolayers (grown in 96-well microtiter plates) and incubated for 1 h at 37° C., 5% CO2 (see Experimental section). After washing, bound fluorescence was measured using an Odyssey CLx (LI-COR) scanner. A representative image of the scanned plate and binding quantification are reported. Mean ±SE of quadruplicate wells.
(§4) Various amounts of unlabeled peptides were mixed 5a-IRDye (4 nM) and added to the cells. After 1 h, the plates were washed, and the bound fluorescence was quantified as described above (left panels).
(§5) The binding of peptide-IRDye conjugates to BxPC-3, 5637, HUVECs, 4T1, K8484 and DT6606 cells was analyzed as follows. The cells were grown in 96-well clear-bottom black microtiterplates (Corning® cat. 3603, 2-3x10^4 cells/well, plated 48 h before the experiment). After washing twice with 0.9% sodium chloride solution, the cells were incubated with 25 mM Hepes buffer, pH 7.4, containing 150 mM sodium chloride, 1 mM magnesium chloride, 1 mM manganese chloride and 1% BSA (binding buffer) for 5 min. Peptide-IRDye conjugates (0.013-40 nM in binding buffer) were then added to the cells and left to incubate for 1 h at 37° C., 5% CO2. After three washings with binding buffer (5 min each, 200 al/well), the cells were fixed with PBS containing 2% paraformaldehyde and 3% sucrose for 15 min at room temperature. Binding of conjugates to cells was quantified by scanning the plate (filled with PBS, 100 al/well) with the Odyssey CLx (LI-COR) using the following settings: scan intensity, 8.5; scan focus offset 4; scan quality, highest; channel, 800; resolution, 169 pm. Then, the plates were incubated with 5 μg/ml of 4′,6-diamidino-2-phenylindole (DAPI) for 15 min, washed twice with PBS and read with a VICTOR3 plate reader (Perkin Elmer, Waltham, Mass., USA) to quantify the cell number in each well, using the following filters: excitation, 355±40 nm; emission, 460±25 nm (acquisition,1 s).

Another series addresses T1, αvβ6 (Homo sapiens, UniProt P06756+P18564).
T1 construct: recombinant human αvβ6 extracellular domain (R&D Systems); purchased R&D Systems (Minneapolis, Minn.)
The series can be described thus: Competitive integrin binding assay (isoDGR/STV-HRP probe), αvβ6-coated plates. As for the experimental part: as §1, §2

The subject of a further series is 5637 cells. Kind of series: Binding of peptide-IRDye conjugates to cultured 5637 cells. The format is cell-based, human. Particulars: 5637 cells; 5a-IRDye 4 nM. As for the experimental part: as §3, §4, §5
Series [1] has as its system human bladder carcinoma 5637 cells. Kind of series: 5637 cell viability (PrestoBlue). The conditions noted are these: 48 h. The format is cell-based. How it is done: FIG. 12. Effect of peptides 4 and 5 on human bladder carcinoma 5637 cell viability. 5637 cells were seeded in a 96-well microtiterplate (20,000 cell/well) and cultured for 16 h at 37° C., 5% CO2. The day after the indicated doses of peptide 4 and 5 were added to the cells and left to incubate for additionally 48 h at 37° C., 5% CO2. Cell viability was assessed using the PrestoBlue* cell viability reagent (ThermoFisher) according to the manufacturer's instructions. Viability of the treated cells was normalized to that of untreated cells and is reported as a percentage (mean±SE of triplicate wells).

A short description of series [2]: Peptide stability in mouse liver microsomal preparations (RP-HPLC). Format: in vitro ADME. The conditions noted are these: C57BL/6, mouse, liver microsomes; 37° C.; read-out: t1/2 in mouse liver microsomes (converted). As for the experimental part: FIG. 14. Stability of peptides 4 and 5 in murine liver microsomes as determined by RP-HPLC. a) RP-HPLC of 4 and 5 after incubation at 37° C. in murine liver microsomes. Peak 1 corresponds to 4 and 5. The peptides were added to murine liver microsomes (454 - μg/ml, final concentration) and incubated for the indicated time, diluted with an equal volume of 90% acetonitrile containing 0.1% TFA and analyzed onto a LiChrospher C18 column (16 ag). No peptide indicates liver microsome aliquot without the peptide. b) Quantification of Peak 1 area (left panel) and height (right panel) of the indicated peptides. The corresponding half-life is also shown.
The stability of compound 4 and 5 in mouse liver microsomal preparations was assessed by HPLC analysis. To this aim microsomes were prepared as follows: 11 g of mouse liver tissue (C57BL/6 mice) was homogenized in cold PBS supplemented with 0.25 M sucrose (3 ml/g of tissue) using a Potter-Elvehjem homogenizer (10 strokes), followed by additional homogenization using a rotor-stator homogenizer (40 sec). The homogenate was filtered through 70 pm cell-strainers, centrifuged three times to remove insoluble materials (500 x g, 5 min; 3000 x g, 30 min; 110000 x g, 90 min, 4° C.). […] Protein concentration was measured by measuring the absorbance at 280 nm with a NanoDrop spectrophotometer (Thermo Scientific). […]
Background: Liver microsomes are a subcellular fraction often used to study metabolism.

Regarding `CC[C@H](C)[C@H](NC(=O)[C@H](CCCNC(=N)N)NC(=O)[C@H](CC(C)C)NC(=O)[C@H](CC(=O)O)NC(=O)CNC(=O)[C@H](CCCNC(=N)N)NC(=O)[C@H](CC(C)C)NC(=O)[C@@H](NC(=O)[C@H](CCC(=O)O)NC(=O)[C@H](Cc1ccccc1)NC(=O)[C@@H](N)CSC1CC(=O)N(CCNC(=O)CN2CCN(CC(=O)O)CCN(CC(=O)O)CC2)C1=O)[C@@H](C)O)C(=O)N[C@@H](CC(C)C)C(=O)N[C@@H](CO)C(=O)N[C@H](C(=O)N[C@@H](CC(C)C)C(=O)N[C@@H](CCCNC(=N)N)C(=O)N[C@H]1Cc2cn(nn2)CCCC[C@@H](C(=O)N[C@@H](CCCCN)C(=O)N[C@@H](CCC(=O)O)C(=O)N[C@@H](CC(C)C)C(=O)N[C@@H](CCC(N)=O)C(=O)N[C@@H](CC(=O)O)C(N)=O)NC(=O)[C@H](CC(C)C)NC(=O)[C@H](CC(N)=O)NC(=O)[C@H](CCC(N)=O)NC1=O)[C@@H](C)CC` (some centres unmarked) [1^8F-NOTA-5a], the tissue uptake (commonly the share of the injected amount in each gram of the tissue) at 2 h is roughly 2 %ID/g in the series “in vivo” (accumulation in intestine, femur, liver and stomach); 1.2 %ID/g in the series “in vivo” (accumulation in the lungs); roughly 80 %ID/g in “in vivo” (radiotracer levels in the kidneys); less than 0.5 %ID/g in the series “in vivo” (uptake in brain, heart, spleen, blood, muscle).

With `CC[C@H](C)[C@H](NC(=O)[C@H](CCCNC(=N)N)NC(=O)[C@H](CCC(=O)O)NC(=O)[C@H](CCC(=O)O)NC(=O)CNC(=O)[C@H](CCCNC(=N)N)NC(=O)[C@H](CC(C)C)NC(=O)[C@@H](NC(=O)[C@H](CCC(=O)O)NC(=O)[C@H](Cc1ccccc1)NC(=O)[C@@H](N)CS)[C@@H](C)O)C(=O)N[C@@H](CC(C)C)C(=O)N[C@@H](CO)C(=O)N[C@H](C(=O)N[C@@H](CC(C)C)C(=O)N[C@@H](CCCNC(=N)N)C(=O)N[C@@H](Cc1c[nH]cn1)C(=O)N[C@@H](CCC(N)=O)C(=O)N[C@@H](CC(N)=O)C(=O)N[C@@H](CC(C)C)C(=O)N[C@@H](CC(C)C)C(=O)N[C@@H](CCCCN)C(=O)N[C@@H](CCC(=O)O)C(=O)N[C@@H](CC(C)C)C(=O)N[C@@H](CCC(N)=O)C(=O)N[C@@H](CC(=O)O)C(=O)O)[C@@H](C)CC` [peptide 2a, reference compound] (H-CFETLRGEERILSILRHQNLLKELQD-OH; N-terminus and C-terminus assumed), the Ki (commonly a dissociation constant, usually derived from enzyme kinetics or from competition with a known ligand) is greater than 50000 nM on αvβ8 (Table 3b, mean ± SE, read-out: Binding affinity for αvβ8 Ki) and greater than 50000 nM at αvβ6 (Table 3b, mean ± SE, read-out: Binding affinity for αvβ6 Ki). Besides, the “inhibition of 5a-IRDye binding by excess of free peptide” value with BxPC-3 cells and with 5637 cells was “not” throughout.

As to `CC[C@H](C)[C@H](NC(=O)[C@H](CCCNC(=N)N)NC(=O)[C@H](CC(C)C)NC(=O)[C@H](CC(=O)O)NC(=O)CNC(=O)[C@H](CCCNC(=N)N)NC(=O)[C@H](CC(C)C)NC(=O)[C@@H](NC(=O)[C@H](CCC(=O)O)NC(=O)[C@H](Cc1ccccc1)NC(C)=O)[C@@H](C)O)C(=O)N[C@@H](CC(C)C)C(=O)N[C@@H](CO)C(=O)N[C@H](C(=O)N[C@@H](CC(C)C)C(=O)N[C@@H](CCCNC(=N)N)C(=O)N[C@H]1Cc2cn(nn2)CCCC[C@@H](C(=O)N[C@@H](CCCCN)C(=O)N[C@@H](CCC(=O)O)C(=O)N[C@@H](CC(C)C)C(=O)N[C@@H](CCC(N)=O)C(=O)N[C@@H](CC(=O)O)C(N)=O)NC(=O)[C@H](CC(C)C)NC(=O)[C@H](CC(N)=O)NC(=O)[C@H](CCC(N)=O)NC1=O)[C@@H](C)CC` [peptide 5, FETLRGDLRILSILRX1QNLX2KELQD] (Ac-FETLRGDLRILSILR[Pra]QNL[Lys(N3)]KELQD-NH2; triazole 16-20), the Ki came to 3.2 ± 1.2 nM at αvβ8 (Table 3a and text, ± standard error of the mean, read-out: Ki αvβ8); 0.6 ± 0.1 nM at αvβ6 (Table 3a and text, ± standard error of the mean, read-out: Ki αvβ6). Moreover, the cytotoxicity in vitro entry in series [1] is “not cytotoxic”. For the same compound, in series [2], the half-life at 454 μg/ml was 4.3 h.

`CC[C@H](C)[C@H](NC(=O)[C@H](CCCNC(=N)N)NC(=O)[C@H](CC(C)C)NC(=O)[C@H](CC(=O)O)NC(=O)CNC(=O)[C@H](CCCNC(=N)N)NC(=O)[C@H](CC(C)C)NC(=O)[C@@H](NC(=O)[C@H](CCC(=O)O)NC(=O)[C@H](Cc1ccccc1)NC(=O)[C@@H](N)CS)[C@@H](C)O)C(=O)N[C@@H](CC(C)C)C(=O)N[C@@H](CO)C(=O)N[C@H](C(=O)N[C@@H](CC(C)C)C(=O)N[C@@H](CCCNC(=N)N)C(=O)N[C@H]1Cc2cn(nn2)CCCC[C@@H](C(=O)N[C@@H](CCCCN)C(=O)N[C@@H](CCC(=O)O)C(=O)N[C@@H](CC(C)C)C(=O)N[C@@H](CCC(N)=O)C(=O)N[C@@H](CC(=O)O)C(N)=O)NC(=O)[C@H](CC(C)C)NC(=O)[C@H](CC(N)=O)NC(=O)[C@H](CCC(N)=O)NC1=O)[C@@H](C)CC` [peptide 5a, CFETLRGDLRILSILRX1QNLX2KELQD]: the “inhibition of 5a-IRDye binding by excess of free peptide” value in the series with BxPC-3 cells and in the series on 5637 cells was “significantly inhibited” each time.
